Assay results published in ChEMBL document CHEMBL2146447, “Synthesis and antimicrobial activity of amido linked pyrrolyl and pyrazolyl-oxazoles, thiazoles and imidazoles” (2011).
Activity calls are given as the source filed them. No cut-off for these calls is given here.

Experiments:
Type in all cases: functional
Staphylococcus aureus [1] = assay: Antibacterial activity against Staphylococcus aureus assessed at 50 ug after 24 hrs by agar well diffusion method; conditions: for zone of inhibition at 50 µg/disc: read-out: DIZ
Staphylococcus aureus [2] = assay: Antibacterial activity against Staphylococcus aureus at 100 ug after 24 hrs by agar well diffusion method; conditions: for zone of inhibition at 100 µg/disc: read-out: DIZ
Bacillus subtilis [3] = assay: Antibacterial activity against Bacillus subtilis at 50 ug after 24 hrs by agar well diffusion method; conditions: for zone of inhibition at 50 µg/disc: read-out: DIZ
Bacillus subtilis [4] = assay: Antibacterial activity against Bacillus subtilis at 100 ug after 24 hrs by agar well diffusion method; conditions: for zone of inhibition at 100 µg/disc: read-out: DIZ
Pseudomonas aeruginosa [5] = assay: Antibacterial activity against Pseudomonas aeruginosa at 50 ug after 24 hrs by agar well diffusion method; conditions: for zone of inhibition at 50 µg/disc: read-out: DIZ
Pseudomonas aeruginosa [6] = assay: Antibacterial activity against Pseudomonas aeruginosa at 100 ug after 24 hrs by agar well diffusion method; conditions: for zone of inhibition at 100 µg/disc: read-out: DIZ
Klebsiella pneumoniae [7] = assay: Antibacterial activity against Klebsiella pneumoniae at 50 ug after 24 hrs by agar well diffusion method; conditions: for zone of inhibition at 50 µg/disc: read-out: DIZ
Klebsiella pneumoniae [8] = assay: Antibacterial activity against Klebsiella pneumoniae at 100 ug after 24 hrs by agar well diffusion method; conditions: for zone of inhibition at 100 µg/disc: read-out: DIZ
Aspergillus niger [9] = assay: Antifungal activity against Aspergillus niger at 50 ug after 48 hrs by agar well diffusion method; conditions: for zone of inhibition at 50 µg/disc: read-out: DIZ
Aspergillus niger [10] = assay: Antifungal activity against Aspergillus niger at 100 ug after 48 hrs by agar well diffusion method; conditions: for zone of inhibition at 100 µg/disc: read-out: DIZ
Penicillium chrysogenum [11] = assay: Antifungal activity against Penicillium chrysogenum at 50 ug after 48 hrs by agar well diffusion method; conditions: for zone of inhibition at 50 µg/disc: read-out: DIZ
Penicillium chrysogenum [12] = assay: Antifungal activity against Penicillium chrysogenum at 100 ug after 48 hrs by agar well diffusion method; conditions: for zone of inhibition at 100 µg/disc: read-out: DIZ

Row | SMILES | zone of inhibition at 50 µg/disc (Staphylococcus aureus [1]) | zone of inhibition at 100 µg/disc (Staphylococcus aureus [2]) | zone of inhibition at 50 µg/disc (Bacillus subtilis [3]) | zone of inhibition at 100 µg/disc (Bacillus subtilis [4]) | zone of inhibition at 50 µg/disc (Pseudomonas aeruginosa [5]) | zone of inhibition at 100 µg/disc (Pseudomonas aeruginosa [6]) | zone of inhibition at 50 µg/disc (Klebsiella pneumoniae [7]) | zone of inhibition at 100 µg/disc (Klebsiella pneumoniae [8]) | zone of inhibition at 50 µg/disc (Aspergillus niger [9]) | zone of inhibition at 100 µg/disc (Aspergillus niger [10]) | zone of inhibition at 50 µg/disc (Penicillium chrysogenum [11]) | zone of inhibition at 100 µg/disc (Penicillium chrysogenum [12]) | also measured
1 | Cc1ccc(-c2csc(NC(=O)c3c[nH]cc3-c3ccccc3)n2)cc1 | 16 mm | 18 mm | 19 mm | 21 mm | 13 mm | 15 mm | 21 mm | 23 mm | 18 mm | 19 mm | 18 mm | 21 mm | –
2 | Cc1ccc(-c2c[nH]c(NC(=O)C3=NNCC3c3ccccc3)n2)cc1 (centres undefined) | 11 mm | 13 mm | 14 mm | 16 mm | 11 mm | 13 mm | 16 mm | 18 mm | 11 mm | 14 mm | 13 mm | 16 mm | –
3 | Cc1ccc(-c2coc(NC(=O)/C=C/c3ccccc3)n2)cc1 | – | – | – | – | – | – | – | – | – | – | – | – | diameter of the inhibition zone (DIZ) (Staphylococcus aureus [1]): inactive; diameter of the inhibition zone (DIZ) (Staphylococcus aureus [2]): inactive; diameter of the inhibition zone (DIZ) (Bacillus subtilis [3]): inactive; diameter of the inhibition zone (DIZ) (Bacillus subtilis [4]): inactive; diameter of the inhibition zone (DIZ) (Pseudomonas aeruginosa [5]): inactive; diameter of the inhibition zone (DIZ) (Pseudomonas aeruginosa [6]): inactive; diameter of the inhibition zone (DIZ) (Klebsiella pneumoniae [7]): inactive; diameter of the inhibition zone (DIZ) (Klebsiella pneumoniae [8]): inactive; diameter of the inhibition zone (DIZ) (Aspergillus niger [9]): inactive; diameter of the inhibition zone (DIZ) (Aspergillus niger [10]): inactive; diameter of the inhibition zone (DIZ) (Penicillium chrysogenum [11]): inactive; diameter of the inhibition zone (DIZ) (Penicillium chrysogenum [12]): inactive
4 | O=C(Nc1nc(-c2ccccc2)co1)C1=NNCC1c1ccccc1 (centres undefined) | – | – | – | – | – | – | – | – | – | – | – | – | diameter of the inhibition zone (DIZ) (Staphylococcus aureus [1]): inactive; diameter of the inhibition zone (DIZ) (Staphylococcus aureus [2]): inactive; diameter of the inhibition zone (DIZ) (Bacillus subtilis [3]): inactive; diameter of the inhibition zone (DIZ) (Bacillus subtilis [4]): inactive; diameter of the inhibition zone (DIZ) (Pseudomonas aeruginosa [5]): inactive; diameter of the inhibition zone (DIZ) (Pseudomonas aeruginosa [6]): inactive; diameter of the inhibition zone (DIZ) (Klebsiella pneumoniae [7]): inactive; diameter of the inhibition zone (DIZ) (Klebsiella pneumoniae [8]): inactive; diameter of the inhibition zone (DIZ) (Aspergillus niger [9]): inactive; diameter of the inhibition zone (DIZ) (Aspergillus niger [10]): inactive; diameter of the inhibition zone (DIZ) (Penicillium chrysogenum [11]): inactive; diameter of the inhibition zone (DIZ) (Penicillium chrysogenum [12]): inactive
5 | O=C(Nc1nc(-c2ccc(Cl)cc2)cs1)C1=NNCC1c1ccccc1 (centres undefined) | 24 mm | 27 mm | 25 mm | 26 mm | 22 mm | 23 mm | 25 mm | 28 mm | 28 mm | 29 mm | 28 mm | 31 mm | –
6 | O=C(/C=C/c1ccccc1)Nc1nc(-c2ccccc2)c[nH]1 | 19 mm | 21 mm | 22 mm | 24 mm | 16 mm | 17 mm | 24 mm | 26 mm | 19 mm | 22 mm | 21 mm | 24 mm | –
7 | O=C(/C=C/c1ccccc1)Nc1nc(-c2ccc(Cl)cc2)co1 | 22 mm | 25 mm | 20 mm | 24 mm | 21 mm | 22 mm | 24 mm | 27 mm | 25 mm | 28 mm | 27 mm | 30 mm | –
